According to PubChem BioAssay AID248 (DTP/NCI, 2004):
Toxic doses and inconclusive results are not listed. Cut-off read from the data, not from the text of the source: active = T/C of 150% or more; inactive = T/C below 125%.

System: L1210 leukemia ip in BDF1 mice, survival T/C
Test: NCI In Vivo Anticancer Drug Screen. Data for tumor model L1210 Leukemia (intraperitoneal) in B6D2F1 (BDF1) mice
Settings: endpoint: mean survival time, higher = longer survival
In short: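 In this screen, tumor-bearing mice given compound are compared to those given vehicle, and their survival values are reported as a treated-to-control quotient.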

[1] = dose: 100.0 mg/kg/injection, schedule: Q01DX009 (ip), vehicle: saline with Tween-80
[2] = dose: 100.0 mg/kg/injection, schedule: Q04DX003 (ip), vehicle: saline with Tween-80
[3] = dose: 200.0 mg/kg/injection, schedule: Q01DX009 (ip), vehicle: saline with Tween-80
[4] = dose: 200.0 mg/kg/injection, schedule: Q04DX003 (ip), vehicle: saline with Tween-80
[5] = dose: 50.0 mg/kg/injection, schedule: Q04DX002 (ip), vehicle: saline with Tween-80
[6] = dose: 100.0 mg/kg/injection, schedule: Q04DX002 (ip), vehicle: saline with Tween-80
[7] = dose: 400.0 mg/kg/injection, schedule: Q04DX003 (ip), vehicle: saline with Tween-80
[8] = dose: 100.0 mg/kg/injection, schedule: Q01DX009 (ip), vehicle: Klucel (hydroxypropylcellulose) (HPC)
[9] = dose: 100.0 mg/kg/injection, schedule: Q04DX003 (ip), vehicle: Klucel (hydroxypropylcellulose) (HPC)
[10] = dose: 200.0 mg/kg/injection, schedule: Q01DX009 (ip), vehicle: Klucel (hydroxypropylcellulose) (HPC)
[11] = dose: 200.0 mg/kg/injection, schedule: Q04DX003 (ip), vehicle: Klucel (hydroxypropylcellulose) (HPC)
[12] = dose: 400.0 mg/kg/injection, schedule: Q01DX009 (ip), vehicle: Klucel (hydroxypropylcellulose) (HPC)
[13] = dose: 400.0 mg/kg/injection, schedule: Q04DX003 (ip), vehicle: Klucel (hydroxypropylcellulose) (HPC)
[14] = dose: 100.0 mg/kg/injection, schedule: Q04DX003 (ip), vehicle: saline
[15] = dose: 200.0 mg/kg/injection, schedule: Q04DX003 (ip), vehicle: saline
[16] = dose: 100.0 mg/kg/injection, schedule: Q01DX001 (ip), vehicle: saline
[17] = dose: 200.0 mg/kg/injection, schedule: Q01DX001 (ip), vehicle: saline
[18] = dose: 25.0 mg/kg/injection, schedule: Q04DX003 (ip), vehicle: Klucel (hydroxypropylcellulose) (HPC)
[19] = dose: 50.0 mg/kg/injection, schedule: Q04DX003 (ip), vehicle: Klucel (hydroxypropylcellulose) (HPC)
[20] = dose: 50.0 mg/kg/injection, schedule: Q01DX001 (ip), vehicle: carboxymethylcellulose (CMC)
[21] = dose: 100.0 mg/kg/injection, schedule: Q01DX001 (ip), vehicle: carboxymethylcellulose (CMC)
[22] = dose: 200.0 mg/kg/injection, schedule: Q01DX001 (ip), vehicle: carboxymethylcellulose (CMC)
[23] = dose: 400.0 mg/kg/injection, schedule: Q01DX001 (ip), vehicle: carboxymethylcellulose (CMC)

Measured: T/C

C#CCOCC(CCl)OC(N)=O (centres undefined)
inactive: dose: 50.0 mg/kg/injection, schedule: Q01DX009 (ip), vehicle: saline with Tween-80 121 % of control | dose: 50.0 mg/kg/injection, schedule: Q04DX003 (ip), vehicle: saline with Tween-80 104 % of control | [1] 105 % of control | [2] 101 % of control | [3] 106 % of control | [4] 110 % of control

CC1(C)CCC2(C)CCCCC2C1O (centres undefined)
inactive: [5] 92 % of control | [6] 96 % of control | dose: 200.0 mg/kg/injection, schedule: Q04DX002 (ip), vehicle: saline with Tween-80 101 % of control

Cc1cc2c(cc1C)C(O)C(N1CCCCC1)CCC2 (centres undefined)
inactive: [2] 100 % of control | [4] 92 % of control | [7] 90 % of control

Cc1ccnc(NC(=O)NC2CCCCC2)c1
inactive: dose: 100.0 mg/kg/injection, schedule: Q04DX002 (ip), vehicle: Klucel (hydroxypropylcellulose) (HPC) 96 % of control | dose: 200.0 mg/kg/injection, schedule: Q04DX002 (ip), vehicle: Klucel (hydroxypropylcellulose) (HPC) 101 % of control | dose: 400.0 mg/kg/injection, schedule: Q04DX002 (ip), vehicle: Klucel (hydroxypropylcellulose) (HPC) 96 % of control

O=[N+]([O-])c1ccc(OCCCOc2ccccc2)cc1
inactive: [8] 112 % of control | [9] 97 % of control | [10] 101 % of control | [11] 103 % of control | [12] 98 % of control | [13] 100 % of control

Cc1ccc(-n2c(N)cc(=O)[nH]c2=S)nc1
inactive: dose: 100.0 mg/kg/injection, schedule: Q04DX002 (ip), vehicle: saline 96 % of control | dose: 200.0 mg/kg/injection, schedule: Q04DX002 (ip), vehicle: saline 100 % of control | dose: 400.0 mg/kg/injection, schedule: Q04DX002 (ip), vehicle: saline 107 % of control

Cc1ccnc2c3c4c(cc12)c(C)cc(=O)n4CO3
inactive: dose: 75.0 mg/kg/injection, schedule: Q01DX001 (ip), vehicle: Klucel (hydroxypropylcellulose) (HPC) 104 % of control | dose: 150.0 mg/kg/injection, schedule: Q01DX001 (ip), vehicle: Klucel (hydroxypropylcellulose) (HPC) 95 % of control | dose: 150.0 mg/kg/injection, schedule: Q01DX009 (ip), vehicle: Klucel (hydroxypropylcellulose) (HPC) 114 % of control | dose: 300.0 mg/kg/injection, schedule: Q01DX001 (ip), vehicle: Klucel (hydroxypropylcellulose) (HPC) 98 % of control

CC(C)(CO)NCc1ccc(Cl)c(Cl)c1
inactive: [8] 98 % of control | [14] 106 % of control | [10] 102 % of control | [15] 97 % of control | dose: 400.0 mg/kg/injection, schedule: Q04DX003 (ip), vehicle: saline 97 % of control

CSc1ccc(OC(=O)Nc2cc(C)ccc2C)cc1
inactive: [8] 97 % of control | [9] 109 % of control | [10] 107 % of control | [11] 107 % of control | [13] 107 % of control

O=S(=O)(CCCc1ccccc1)CCS(=O)(=O)CCCc1ccccc1
inactive: dose: 50.0 mg/kg/injection, schedule: Q01DX009 (ip), vehicle: acetone 98 % of control | dose: 100.0 mg/kg/injection, schedule: Q01DX009 (ip), vehicle: acetone 98 % of control | dose: 200.0 mg/kg/injection, schedule: Q01DX009 (ip), vehicle: acetone 98 % of control

O=C(CCCCCCCCC(=O)Nc1cccc(C(F)(F)F)c1)Nc1cccc(C(F)(F)F)c1
inactive: [8] 101 % of control | [10] 92 % of control | [12] 95 % of control

CCOP(OCC)Oc1ccccc1
inactive: [2] 92 % of control | [4] 109 % of control | [7] 100 % of control

Cc1c2c(cc3c1OCN(C)C3)CN(C)CO2
inactive: dose: 50.0 mg/kg/injection, schedule: Q01DX001 (ip), vehicle: saline 104 % of control | [16] 101 % of control | [17] 107 % of control

Cc1cc(Cl)nc2ccc(Cc3ccc(Cl)cc3)cc12
inactive: [16] 97 % of control | [17] 92 % of control | dose: 400.0 mg/kg/injection, schedule: Q01DX001 (ip), vehicle: saline 93 % of control

O=C1OC2(Cc3ccccc31)c1ccccc1-c1ccccc12
inactive: [18] 91 % of control | [19] 90 % of control | [9] 88 % of control | [11] 88 % of control | [13] 90 % of control

N/N=C1/CCN2CCCc3cccc1c32
inactive: [2] 101 % of control | [4] 96 % of control

Cc1ccc(S(=O)(=O)N=S(C)C)cc1
inactive: [20] 104 % of control | [21] 104 % of control | [22] 98 % of control | [23] 93 % of control | dose: 800.0 mg/kg/injection, schedule: Q01DX001 (ip), vehicle: carboxymethylcellulose (CMC) 105 % of control | dose: 1200.0 mg/kg/injection, schedule: Q01DX001 (ip), vehicle: carboxymethylcellulose (CMC) 103 % of control | dose: 1600.0 mg/kg/injection, schedule: Q01DX001 (ip), vehicle: carboxymethylcellulose (CMC) 109 % of control

COc1cccc(C(=O)O)c1C(=O)c1ccc(C)cc1O
inactive: [2] 100 % of control | [4] 97 % of control | [7] 90 % of control

[O]=[Sb]([OH])([OH])[c]1ccccc1
inactive: dose: 12.5 mg/kg/injection, schedule: Q04DX002 (ip), vehicle: saline with Tween-80 100 % of control | dose: 25.0 mg/kg/injection, schedule: Q04DX002 (ip), vehicle: saline with Tween-80 100 % of control | dose: 50.0 mg/kg/injection, schedule: Q01DX009 (sc), vehicle: olive oil, sesame oil, peanut oil 97 % of control | [5] 103 % of control | dose: 100.0 mg/kg/injection, schedule: Q01DX009 (sc), vehicle: olive oil, sesame oil, peanut oil 95 % of control | [6] 90 % of control | dose: 100.0 mg/kg/injection, schedule: Q04DX003 (sc), vehicle: olive oil, sesame oil, peanut oil 97 % of control | dose: 200.0 mg/kg/injection, schedule: Q04DX003 (sc), vehicle: olive oil, sesame oil, peanut oil 93 % of control

CC(=O)Nc1ccc(OC(=O)Nc2cc(C(F)(F)F)ccc2Cl)cc1
inactive: [8] 93 % of control | [10] 111 % of control

COc1ccc2nccc(/C=C/CC3CCN(C(C)=O)CC3)c2c1
inactive: dose: 12.5 mg/kg/injection, schedule: Q01DX009 (ip), vehicle: saline 98 % of control | dose: 12.5 mg/kg/injection, schedule: Q04DX003 (ip), vehicle: Klucel (hydroxypropylcellulose) (HPC) 103 % of control | dose: 25.0 mg/kg/injection, schedule: Q01DX009 (ip), vehicle: saline 96 % of control | [18] 107 % of control | dose: 50.0 mg/kg/injection, schedule: Q01DX009 (ip), vehicle: saline 101 % of control | [19] 103 % of control | [14] 102 % of control

[Cl][Dy]([Cl])[Cl]
inactive: [14] 103 % of control | [15] 114 % of control

COC(=O)C(=C(c1ccccc1)c1ccccc1)c1ccccc1C(=O)O
inactive: [1] 90 % of control | [2] 101 % of control | [3] 88 % of control | [4] 93 % of control | dose: 400.0 mg/kg/injection, schedule: Q01DX009 (ip), vehicle: saline with Tween-80 96 % of control | [7] 92 % of control

COC1C=CC=CC=C1
inactive: dose: 15.0 mg/kg/injection, schedule: Q01DX009 (ip), vehicle: saline with Tween-80 108 % of control | dose: 30.0 mg/kg/injection, schedule: Q01DX009 (ip), vehicle: saline with Tween-80 113 % of control | dose: 60.0 mg/kg/injection, schedule: Q01DX009 (ip), vehicle: saline with Tween-80 103 % of control

CCOC(=O)C(C)(CCOCc1ccccc1)NC(C)=O (centres undefined)
inactive: [20] 94 % of control | [21] 96 % of control | [22] 100 % of control | [23] 91 % of control

c1ccc2c3c([nH]c2c1)C1CC2CCCCC2CN1CC3 (centres undefined)
inactive: dose: 75.0 mg/kg/injection, schedule: Q01DX001 (ip), vehicle: saline 107 % of control | dose: 150.0 mg/kg/injection, schedule: Q01DX001 (ip), vehicle: saline 109 % of control
